{
  "source": "paper PMC4585962",
  "about": "“A peptide factor secreted by Staphylococcus pseudintermedius exhibits properties of both bacteriocins and virulence factors” (Scientific Reports, 2015)",
  "key": {"[1]": {"test_system": "adipose-derived stem cells (ASC)", "test": "Cytotoxicity, LDH and MTT assays", "format": "cell-based", "settings": "4 h exposure, said to be similar to the other cell types (Fig. S7)", "description": "Human skin fibroblasts (HSF, ATCC CRL-2522), adipose-derived stem cells (ASCs, ATCC PCS-500-011), and HeLa human epithelioid cervix carcinoma cells (ATCC CCL-2) were maintained in Dulbecco’s modified Eagle’s medium (DMEM, Sigma) containing 1 g/l glucose, 10% (v/v) foetal bovine serum (FBS), 1 U/ml penicillin, 1 μg/ml streptomycin, and 2.5 μg/ml amphotericin B. Murine P388/D1 monocyte/macrophage cells (ATCC CCL-46) and murine RAW264.7 macrophage-like cells (ATCC TIB-71) were cultured in DMEM containing 4.5 g/l glucose, 5% (v/v) FBS, and antibiotics, as indicated above. Keratinocytes from human skin were grown in KBM Gold Medium (Lonza). All cells were incubated in standard conditions (5% CO2, 37 °C, >95% humidity). […] After a 30-min incubation (RT, in the dark), the reaction was stopped, and the absorbance was measured with a microplate reader (PowerWave X, BioTek Instruments) at 490 nm, followed by subtraction of the absorbance reference value at 690 nm. […] The absorbance of solubilized purple formazan was measured at 540 nm, followed by subtraction of the absorbance reference value at 690 nm. […] The amount of released haemoglobin was spectrophotometrically determined at 540 nm and compared with a positive control (erythrocytes lysed with 1% sodium dodecyl sulphate)."}, "S. aureus RN4220 (pCN68)": {"test_system": "S. aureus RN4220 (pCN68)", "test": "GFP release assay", "format": "cell-based, Staphylococcus aureus", "settings": "2 × 10^6 CFU in PBS, 1 h 37 °C, 0.23 to 15 μM BacSp222, fluorescence of supernatant 480/510 nm", "description": "The bacteria transformed with GFP-encoding plasmids (pCN68[59] for S. aureus RN4220; pALCP2G[60] for B. subtilis 1A751[61] and E. coli DH5α) were grown overnight in TSB supplemented with appropriate antibiotics, washed twice and finally suspended in PBS. Fifty microliters of the suspensions containing 2 × 10^6 CFU of bacteria were then incubated for 1 h at 37 °C with serial dilutions of BacSp222 at concentrations ranging from 0.23 to 15 μM. Then, the bacteria were spun down, and the fluorescence in the supernatant was determined (Synergy H1 microplate reader, BioTek, 480/510 nm excitation/emission wavelengths). As the controls for 100% GFP release, S. aureus and B. subtilis were lysed using lysostaphin and chicken egg white lysozyme (Sigma), respectively, whereas the E. coli cells were disrupted by ultrasonication."}},
  "note": "No end group written: not given here. *: point of attachment. For = O=C*",
  "data": [
    {"substance": "For-MAGLLRFLLSKGRALYNWAKSHVGKVWEWLKSGATYEQIKEWIENALGWR [BacSp222]", "values": [
      {"measurement": "cytotoxic effect", "setting": "[1]", "value": "sigmoidal, dose-dependent cytotoxic effect"},
      {"measurement": "leakage of GFP from recombinant cells", "setting": "S. aureus RN4220 (pCN68)", "value": "dose-dependent leakage of GFP was observed"}
    ]}
  ]
}
